Laboratory results from patent US20220105127A1, “METHODS FOR PROVIDING THE BENEFITS OF METHIONINE RESTRICTION WITHOUT DIETARY RESTRICTION” (priority 2020, published 2022).

Experiments:
[1] = tested on: C57BL/6J mice; assay: Experiment 3: low-fat diet with selenomethionine, inguinal and perigonadal fat pad weight; type: in vivo, mouse; conditions: male mice, selenomethionine 0.00015% of food, low-fat diet (10% of calories from fat), 8 week interval, p<0.01; even more effectively than methionine restriction
Experimental: (§1) All animal studies conducted were approved by the Institutional Animal Care and Use Committee (IACUC) of the Orentreich Foundation for the Advancement of Science, Inc. (Permit Number: 0511 MB). C57BL/6J mice (stock number 000664) were purchased from the Jackson Laboratories (Bar Harbor, Me.) and housed in a conventional animal facility maintained at 20±2° C., 50±10% relative humidity, with a 12 hr/12 hr light/dark photoperiod. Food and water were provided ad libitum. Upon arrival, mice were acclimatized for up to one week and fed Purina Lab Chow 5001 (Ralston Purina, Co.; St. Louis, Mo.).
In this experiment, male mice were divided into three groups, with each group being fed a separate low-fat diet ad libitum for 8 weeks. The first group represented the control-fed group (CF group) and was fed a low-fat base diet that included 0.86% methionine as a percentage of total food. The second group was fed a methionine-restricted diet (MR group) where the amount of methionine was restricted to 0.12% of total consumed. The third group was fed the base diet supplemented with selenomethionine (SMS group) in an amount representing 0.00015% of total food consumed.
FIGS. 9A and 9B depict the reduced white adipose tissue accumulation of the SMS group as compared with the MR group and the CF group. […]

[2] = tested on: C57BL/6J mice; assay: Experiment 1: high-fat diet with selenium compounds, body mass, fat pad and liver mass; type: in vivo, mouse
Experimental: as §1
At the beginning of the experiment, the mice were divided into 5 groups with each group being fed one of five isocaloric (5.3 kcal/gm) high-fat diets ad libitum for several weeks. Each high-fat diet comprising a base of 12% kcal protein, 31% kcal carbohydrate, and 57% kcal fat. The first group's diet was the control-fed diet and included the base and methionine in an amount that represented about 0.86% of the weight of the food (sometimes referred to as “control group,” “control-fed group,” or “group 1”). The second group's diet was the methionine-restricted group where the base-diet was restricted to 0.12% methionine as a percentage of the total weight of the food (sometimes referred to as “methionine-restricted group” or “group 2”). The third group was fed the base diet containing 0.86% methionine, which was supplemented with sodium selenite in an amount representing 0.0073% of the total weight of the food (sometimes referred to as “sodium selenite-supplemented group” or “group 3”). The fourth group was fed the base diet containing 0.86% methionine, supplemented with 0.0036% selenomethionine, as a percentage of the total food weight (sometimes referred to as “group 4”). The fifth group was fed the base diet containing 0.86% methionine as a percentage of the total weight of the food, supplemented with 0.0073% selenomethionine as a percentage of the total weight of the food (sometimes referred to as “group 5”). Amounts of selenium-containing compounds used for this and subsequent experiments were determined from pilot studies aimed at identifying minimal doses that still achieve high efficacy. […] The amount of selenomethionine administered to the animals in the fourth and fifth groups was approximately 1/200 and 1/100 times respectively, of the levels of sulfur-containing amino acids (i.e., methionine and cysteine) present in the subjects' diets.
Body mass and food consumption were monitored once a week for sixteen weeks. Prior to blood collection, animals were fasted for 4 hours to establish a physiological baseline. Blood was then collected from the retro-orbital plexus and processed using EDTA-K2-coated blood collection tubes (Milian Dutscher Group; Geneva, Switzerland). The resulting plasma was frozen and stored at −80° C. until used for analysis. A portion of each blood sample was used for blood glucose determination using an Abbott Freestyle Lite glucometer and glucose strips (Abbott Diabetes Care, Inc.; Alameda, Calif.). At the end of each study, animals were fasted and bled, as described above. The mice were then sacrificed, their overall body condition was assessed, and certain physiological parameters were measured. The inguinal and perigonadal fat pads, as well as liver of each mouse, were harvested by surgical resection, weighed, flash frozen, and stored at −80° C.

[3] = female mice, high-fat diet, untreated = 100%, sodium selenite 0.0073% of food, selenomethionine 0.0036% or 0.0073% (which not stated)
[4] = male mice, high-fat diet, untreated = 100%, sodium selenite 0.0073% of food, selenomethionine 0.0036% or 0.0073% (which not stated)

C[Se]CC[C@H](N)C(=O)O [Selenomethionine, selenomethionine]
accumulation of inguinal and perigonadal adipose tissue (FIGS. 9A, 9B) [1]: robust protection against the accumulation of adipose tissue
Inguinal Fat Mass, Females [2, 3]: 48%
Perigonadal Fat Mass, Females [2, 3]: 55%
Total Body Mass, Females ([2]; female mice, high-fat diet, untreated = 100%, sodium selenite 0.0073% of food, selenomethionine 0.0036% or 0.0073% (which not stated), 16 weeks): 79%
Inguinal Fat Mass, Males [2, 4]: 54%
Perigonadal Fat Mass, Males [2, 4]: 60%
Total Body Mass, Males ([2]; male mice, high-fat diet, untreated = 100%, sodium selenite 0.0073% of food, selenomethionine 0.0036% or 0.0073% (which not stated), 16 weeks): 84%
overall body mass / diet-induced obesity ([2]; male mice, selenomethionine 0.0036% and 0.0073% of food, high-fat diet, vs control-fed littermates): dose-dependent protection against diet-induced obesity
inguinal and perigonadal adipose tissue ([2]; male mice, selenomethionine-supplemented high-fat diet): less inguinal and perigonadal adipose tissue
liver mass ([2]; selenomethionine-supplemented vs control animals, high-fat diet): not significantly different
